Where two headings read alike, the source gives them in different places.
Assays:
[1] = test system: patients with refractory depression; details: 19 patients with refractory depression; molindone 10-30 mg/day; cited from earlier work
patients with ODD = test: treatment of patients with oppositional defiant disorder and conduct disorder; type: in vivo, human
Source text: The side effect is totally unacceptable to teenagers.
Case histories are set out in the following examples, which are offered by way of illustration and are not intended to limit the invention in any manner.

[2] = weight gain in treated patients
[3] = human, in vivo
[4] = cited from earlier work
monoamine oxidase = details: in vitro and in vivo; cited from earlier work
[5] = test system: children with undersocialized conduct disorder, aggressive type; details: cited from earlier work; for behavior ratings: double-blind study, 31 children, ages 6-11 years (Greenhill et al., 1985)
[6] = cited from earlier work; remark: listed apart in the source
Serotonin 2A receptor = target: T1, Serotonin 2A receptor (Homo sapiens, UniProt P28223); test: binding affinity to Serotonin 2A receptor in cell membrane homogenates; details: for Ki: cell membrane homogenates, read-out: pKi 5-HT2A (converted); for pKi ratio 5-HT2A/D2: ratio of Serotonin 2A binding to Dopamine 2 binding
T1 construct: membrane homogenates
Source text: The formulae of the compounds are [drawing 6]
Here, the pKi value is a measure for the binding affinity of the test compounds to the receptors present in cell membrane homogenates. D1 refers to the Dopamine 1 receptor, D2 refers to the Dopamine 2 receptor, and 5-HT2A refers to the Serotonin 2A receptor, while the pKi ratio presents the ratio of Serotonin 2A binding to Dopamine 2 binding.

5-HT2A = 5-HT2A (Homo sapiens, UniProt P28223); test: in vitro activity (pA2) on cells expressing serotonine receptors
Dopamine 1 receptor = Dopamine 1 receptor (Homo sapiens, UniProt P21728); test: binding affinity to Dopamine 1 receptor in cell membrane homogenates
Dopamine 2 receptor = Dopamine 2 receptor (Homo sapiens, UniProt P14416); test: binding affinity to Dopamine 2 receptor in cell membrane homogenates
Sequence of Dopamine 2 receptor (P14416 whole entry): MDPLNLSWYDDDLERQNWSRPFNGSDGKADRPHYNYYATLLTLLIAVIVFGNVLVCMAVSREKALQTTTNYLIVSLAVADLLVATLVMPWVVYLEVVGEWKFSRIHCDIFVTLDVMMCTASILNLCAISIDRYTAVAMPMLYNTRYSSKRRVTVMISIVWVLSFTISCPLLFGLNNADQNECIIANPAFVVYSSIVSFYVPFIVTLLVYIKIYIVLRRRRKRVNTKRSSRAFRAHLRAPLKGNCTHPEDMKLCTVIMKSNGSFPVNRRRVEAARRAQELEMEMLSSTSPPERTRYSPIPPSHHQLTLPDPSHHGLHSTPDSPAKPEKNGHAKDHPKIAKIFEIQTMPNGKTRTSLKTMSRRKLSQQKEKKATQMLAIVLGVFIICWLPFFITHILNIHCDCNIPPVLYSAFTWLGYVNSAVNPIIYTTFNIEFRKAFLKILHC

T1 sequence (P28223 whole entry): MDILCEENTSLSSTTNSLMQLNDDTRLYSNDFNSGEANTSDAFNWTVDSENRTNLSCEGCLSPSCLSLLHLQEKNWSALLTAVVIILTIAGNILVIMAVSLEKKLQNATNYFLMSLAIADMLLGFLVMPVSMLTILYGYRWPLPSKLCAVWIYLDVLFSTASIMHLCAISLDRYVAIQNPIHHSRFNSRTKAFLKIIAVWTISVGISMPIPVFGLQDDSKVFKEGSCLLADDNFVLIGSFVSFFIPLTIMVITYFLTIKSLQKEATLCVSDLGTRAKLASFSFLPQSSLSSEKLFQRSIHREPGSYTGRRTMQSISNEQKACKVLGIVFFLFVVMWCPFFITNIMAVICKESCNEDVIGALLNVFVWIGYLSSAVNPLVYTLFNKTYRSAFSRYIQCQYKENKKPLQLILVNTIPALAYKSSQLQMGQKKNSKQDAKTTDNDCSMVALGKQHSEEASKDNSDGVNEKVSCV
Sequence of 5-HT2A (P28223 whole entry, species assumed): as the sequence (P28223 whole entry) above
Sequence of Dopamine 1 receptor (P21728 whole entry): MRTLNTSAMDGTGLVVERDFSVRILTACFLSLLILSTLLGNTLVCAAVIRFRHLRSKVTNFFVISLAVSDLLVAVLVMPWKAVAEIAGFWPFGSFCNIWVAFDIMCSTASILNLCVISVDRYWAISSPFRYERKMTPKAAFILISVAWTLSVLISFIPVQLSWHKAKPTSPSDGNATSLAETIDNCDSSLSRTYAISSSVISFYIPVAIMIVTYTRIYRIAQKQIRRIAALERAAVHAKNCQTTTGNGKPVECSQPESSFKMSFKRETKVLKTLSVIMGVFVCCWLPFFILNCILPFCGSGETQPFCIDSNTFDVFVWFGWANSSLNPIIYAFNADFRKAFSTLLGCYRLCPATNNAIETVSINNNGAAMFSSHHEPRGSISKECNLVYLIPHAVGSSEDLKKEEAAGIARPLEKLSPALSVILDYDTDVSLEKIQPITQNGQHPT

In the case of `N[C@@H]1C[C@H]1c1ccccc1` (racemic) [tranylcypromine], the “patients showing definite improvement” value [1] is listed as “two”.

For `Cc1nc2n(c(=O)c1CCN1CCC(c3noc4cc(F)ccc34)CC1)CCCC2` [risperidone], the “effect on oppositional behavior” value (patients with ODD; Example 3, patient one, used instead of molindone) was “significant improvement in the oppositional behavior”, the “treatment of ODD” value (patients with ODD; unpublished observations) was “capable of effectively treating ODD” and the weight gain ([2]; Example 3, patient one) was “significant weight gain”. For the same compound, the weight gain ([2]; patients, especially children) was “unacceptable level of weight gain, sometimes approaching a pound a day”.

For `CCc1c(C)[nH]c2c1C(=O)C(CN1CCOCC1)CC2` (stereo not drawn) [Molindone, 3-ethyl-6,7-dihydro-2-methyl-5-(morpholinomethyl)indol-4-(5H)-one], the “effect on tantrums, hitting, rages and swearing” value (patients with ODD; Example 1, patient three, ¼ of a 5 mg tablet every 4 hours) was “immediate cessation of the tantrums, hitting and rages and less swearing”, the “effect of raised dose” value (patients with ODD; Example 1, patient three, ½ of a 5 mg tablet every 4 hours after three months) was “more effective” and the “effect on tantrums and aggressive behaviors” value (patients with ODD; Example 2, patient two, 2.5 mg every 4 hours) was “the tantrums and aggressive behaviors disappeared”. For the same compound, the persistence of effect (patients with ODD; Example 2, patient two, after 6 months of use) was “still effective”, the “effect on behavior after molindone was again initiated” value (patients with ODD; Example 3, patient one) was “immediate and dramatic improvement in the behavior” and the “effect on oppositional behavior” value (patients with ODD; Example 3, patient one, molindone 10 mg bid) was “dramatic decrease in oppositional behavior”. For the same compound, the “treatment of ODD” value (patients with ODD; more than 50 patients with ODD, usual dose 1.25 to 10 mg every 4 hours) was “successfully treated”, the weight gain [3] was “rarely, if ever, causes weight gain” and the prolongation of half-life ([4]; concomitant lithium therapy) was “at least fourfold”. For the same compound, the elimination half-life ([4]; humans) was “approximately 2 hours”, the “inhibition of monoamine oxidase” value (monoamine oxidase) was “inhibits the enzyme monoamine oxidase in vitro and in vivo” and the “patients showing definite improvement” value [1] was “Five of the 10 patients”. For the same compound, the behavior ratings [5] was “improvement in behavior ratings” and the “aggressive behavior and Nurses' Global Assessment Scale” value ([5]; open trial, six patients, ages 6-11 years (Greenhill et al., 1981)) was “some improvement”.

For `O=C(CCCN1CCC(O)(c2ccc(Cl)cc2)CC1)c1ccc(F)cc1` [haloperidol], the “fraction in plasma not bound to protein” value [6] is listed as 9%.

In the case of `Cc1cc2c(s1)Nc1ccccc1N=C2N1CCN(C)CC1` [olanzapine], the weight gain ([2]; Example 3, patient one) is reported as “significant weight gain” and the weight gain ([2]; patients, especially children) is reported as “unacceptable level of weight gain, sometimes approaching a pound a day”.

In the case of `CCc1c(C)[nH]c2c1C(=O)C(CCN1CCOCC1)CC2` (stereo not drawn) [Compound 1], the Ki (Serotonin 2A receptor) is reported as 912 nM, the “pKi ratio 5-HT2A/D2” value (Serotonin 2A receptor) is reported as 0.97 and the Kb (5-HT2A) is reported as 105 nM. The Ki (Dopamine 1 receptor) was 2140 nM and the Ki (Dopamine 2 receptor) was 589 nM.

In the case of `CN(C)CCCN1c2ccccc2Sc2ccc(Cl)cc21` [chlorpromazine], the “fraction in plasma not bound to protein” value [6] is given as 0.13%.

In the case of `CSc1ccc2c(c1)N(CCC1CCCCN1C)c1ccccc1S2` (stereo not drawn) [thioridazine], the behavior ratings [5] is given as “improvement in behavior ratings”.

In the case of `CCc1c(C)[nH]c2c1C(=O)C(CCN1CCN(c3ccccc3OC)CC1)CC2` (stereo not drawn) [Compound 2], the Ki (Serotonin 2A receptor) is reported as 91.2 nM, the “pKi ratio 5-HT2A/D2” value (Serotonin 2A receptor) is reported as 0.97 and the Kb (5-HT2A) is reported as 31.6 nM. For the same compound, the Ki (Dopamine 2 receptor) was 28.2 nM.
